Source: patent US7223781B2 (Beiersdorf AG, priority 2001, dated 2007)
pIC50: −log10 of the molar value. Like-named read-outs stand apart in the source and are kept apart here. Blank lines part the entries; values can stand above or below the compound they belong to.

Target: T1, COX-1 (Sus scrofa, UniProt A0A287ANF9)
T1 construct: A platelet suspension obtained from pig's blood is preincubated with the test substance; endogenous in cells; host or cells: platelets from pig's blood
Test: In-vitro test for COX-1 inhibition: fluorimetric quantification of malonaldehyde (MDA) in A23187-activated pig platelet suspension
Format: cell-based
Settings: for IC50: read-out: MDA pIC50 (converted)
Description: In-vitro Test Procedure for the Determination of COX-1 Inhibition
The inhibition of the cyclooxygenase pathway is carried out by fluorimetric quantification of malonaldehyde (MA). This condenses in the acidic medium with twice the molar amount of thiobarbituric acid to give a red pigment dye, which has a fluorescence at λExcitation: 533 nm, λEmission: 550 nm.
A platelet suspension obtained from pig's blood is preincubated with the test substance for 10 min at 37° C. The concentration of the suspension should be 8×10^8 cells/ml. The arachidonic acid cascade is then activated by addition of the antibiotic calcium ionophore A23187 ([…]). After a further 10 min at 37° C., the reaction is stopped using a trichloroacetic acid solution. The samples are centrifuged and the supernatant is incubated with thiobarbituric acid for 30 min at 70° C. After cooling (30 min at room temperature), the samples are measured fluorimetrically at 533/550 nm and the IC50 values of the test compounds are determined therefrom by means of a calibration curve.

[1] = Table 7, arylamides, pig platelets
[2] = Table 7, arylamides, pig platelets, read-out: MDA IC50
[3] = Table 5, heteroarylmethyl sulfides, pig platelets
[4] = tables 1 to 17, read-out: IC50 values (inhibition of cyclooxygenase-1)
[5] = Table 8, arylsulfonamides, pig platelets, read-out: MDA IC50
[6] = Table 10, alkylsulfonamides, pig platelets

T1 sequence (A0A287ANF9 25-600): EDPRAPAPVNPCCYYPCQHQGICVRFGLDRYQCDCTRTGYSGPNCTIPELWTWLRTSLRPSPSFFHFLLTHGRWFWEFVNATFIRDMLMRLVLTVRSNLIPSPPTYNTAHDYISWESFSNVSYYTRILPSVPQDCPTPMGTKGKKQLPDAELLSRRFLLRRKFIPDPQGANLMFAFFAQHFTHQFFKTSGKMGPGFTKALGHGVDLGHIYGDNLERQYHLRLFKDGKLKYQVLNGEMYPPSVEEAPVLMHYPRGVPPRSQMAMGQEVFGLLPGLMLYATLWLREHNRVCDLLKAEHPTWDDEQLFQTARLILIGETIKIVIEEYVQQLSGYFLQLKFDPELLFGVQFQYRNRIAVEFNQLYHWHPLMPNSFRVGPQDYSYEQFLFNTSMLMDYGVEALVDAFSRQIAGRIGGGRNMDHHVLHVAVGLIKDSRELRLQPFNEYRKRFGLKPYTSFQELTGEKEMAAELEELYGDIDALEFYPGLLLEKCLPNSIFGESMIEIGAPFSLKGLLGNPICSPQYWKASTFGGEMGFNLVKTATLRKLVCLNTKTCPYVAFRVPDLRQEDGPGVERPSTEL

- IC50 [1]: 151 nM
Compound: COc1ccc(-c2nc(SCCNC(=O)c3ccc(Cl)cc3Cl)[nH]c2-c2ccc(OC)cc2)cc1 [Compound T35, N^1-{2-[4,5-Bis(4-methoxyphenyl)-1H-imidazol-2-ylsufanyl]ethyl}-2,4-dichlorobenzamide]

- IC50 (Table 16, dimethyl compounds, pig platelets): 69.2 nM
Compound: COc1ccc(-c2nc(SCCN(C)S(=O)(=O)c3ccc(Cl)cc3)n(C)c2-c2ccc(OC)cc2)cc1 [Compound T19, N^1-{2-[4,5-Bis(4-methoxyphenyl)-1-methyl-1H-imidazol-2-ylsufanyl]-ethyl}-N-1-methyl-4-chlorobenzenesulfonamide]

- IC50 (Table 2, sulfanylacetamides, pig platelets): 209 nM
Compound: COc1ccc(-c2nc(SCC(=O)Nc3ccc(Cl)cc3)[nH]c2-c2ccc(OC)cc2)cc1 [Compound T10, N^1-(4-Chlorophenyl)-2-[4,5-bis(4-methoxyphenyl)-1H-imidazol-2-yl-sufanyl]acetamide]

- pIC50 [2]: 6.28
Compound: COc1ccc(-c2nc(SCCNC(=O)c3cc(Cl)cc(Cl)c3)[nH]c2-c2ccc(OC)cc2)cc1 [Compound T37, N^1-{2-[4,5-Bis(4-methoxyphenyl)-1H-imidazol-2-ylsulfanyl]ethyl}-3,5-dichlorobenzamide]

- IC50 [1]: 251 nM
Compound: COc1ccc(-c2nc(SCCNC(=O)c3ccc(F)cc3)[nH]c2-c2ccc(OC)cc2)cc1 [Compound T38, N^1-{2-[4,5-Bis(4-methoxyphenyl)-1H-imidazol-2-ylsufanyl]ethyl}-4-fluorobenzamide]

- pIC50 (Table 9, alkylamides, pig platelets, read-out: MDA IC50): 7.33
Compound: CCC(=O)NCCSc1nc(-c2ccc(OC)cc2)c(-c2ccc(OC)cc2)[nH]1 [Compound T50]

Compound: COc1ccc(-c2nc(SCCN(C)C)[nH]c2-c2ccc(OC)cc2)cc1 [Compound T14, N,N-Dimethyl-[4,5-bis(4-methoxyphenyl)-1H-imidazol-2-ylsulfanyl]-ethanamine]
- MDA pIC50 (Table 3, amines, pig platelets): 5.49 M
- pIC50 (Table 3, amines, pig platelets, read-out: MDA IC50): 5.49

- IC50 [1]: 141 nM
Compound: COc1ccc(-c2nc(SCCNC(=O)c3ccc(C#N)cc3)[nH]c2-c2ccc(OC)cc2)cc1 [Compound T39, N^1-{2-[4,5-Bis(4-methoxyphenyl)-1H-imidazol-2ylsulfanyl]ethyl}-4-cyanobenzamide]

- IC50 [1]: 1000 nM
Compound: O=C(NCCSc1nc(-c2ccc(F)cc2)c(-c2ccc(F)cc2)[nH]1)c1ccccc1 [Compound T98, N^1-{2-[4,5-Bis(4-fluorophenyl)-1H-imidazol-2-ylsufanyl]ethyl}benzamide]

- IC50 [3]: 3.02 nM
- pIC50 [4]: ~9.00
Compound: COc1ccc(-c2nc(SCc3ccncc3)[nH]c2-c2ccc(OC)cc2)cc1 [Compound T71, 4-[4,5-Bis(4-methoxyphenyl)-1H-imidazol-2-ylsulfanylmethyl]pyridine]

- pIC50 [2]: 7.09
Compound: COc1ccc(-c2nc(SCCNC(=O)c3ccc(C(C)(C)C)cc3)[nH]c2-c2ccc(OC)cc2)cc1 [Compound T48, N^1-{2-[4,5-Bis(4-methoxyphenyl)-1H-imidazol-2-ylsufanyl]ethyl}-4-(tert-butyl)benzamide]

- IC50 (Table 3, amines, pig platelets): 776 nM
Compound: COc1ccc(-c2nc(SCCN)[nH]c2-c2ccc(OC)cc2)cc1 [Compound T15, 2-[4,5-Bis(4-methoxyphenyl)-1H-imidazol-2-ylsufanyl]ethanamine]

- pIC50 (Table 14, sulfones and their sulfide analogs, pig platelets, read-out: MDA IC50): 8.12
- pIC50 [4]: ~9.00
Compound: CCOC(=O)CS(=O)(=O)c1nc(-c2ccc(OC)cc2)c(-c2ccc(OC)cc2)[nH]1 [Compound T80, Ethyl 2-[4,5-bis(4-methoxyphenyl)-1H-imidazol-2-ylsulfonyl]acetate]

- IC50 [1]: 141 nM
Compound: COc1ccc(-c2nc(SCCNC(=O)c3ccc(C)cc3)[nH]c2-c2ccc(OC)cc2)cc1 [Compound T47, N^1-{2-[4,5-Bis(4-methoxyphenyl)-1H-imidazol-2-ylsulfanyl]ethyl}4-methylbenzamide]

- IC50 [1]: 251 nM
Compound: COc1ccc(-c2nc(SCCNC(=O)c3ccc(Cl)cc3)[nH]c2-c2ccc(OC)cc2)cc1 [Compound T32, N^1-{2-[4,5-Bis(4-methoxyphenyl)-1H-imidazol-2-ylsufanyl]ethyl}-4-chlorobenzamide]

- IC50 (Table 12, naphthylsulfonamides, pig platelets): 129 nM
Compound: COc1ccc(-c2nc(SCCNS(=O)(=O)c3ccc4ccccc4c3)[nH]c2-c2ccc(OC)cc2)cc1 [Compound T68, N^1-{2-[4,5-Bis(4-methoxyphenyl)-1H-imidazol-2-ylsulfanyl]ethyl}-naphthalene-2-sulfonamide]

- IC50 [1]: 1000 nM
Compound: COc1ccc(C(=O)NCCSc2nc(-c3ccc(OC)cc3)c(-c3ccc(OC)cc3)[nH]2)cc1 [Compound T45, N^1-{2-[4,5-Bis(4-methoxyphenyl)-1H-imidazol-2-ylsufanyl]ethyl}-4-methoxybenzamide]

- IC50 [1]: 110 nM
Compound: COc1ccc(-c2nc(SCCNC(=O)c3c(Cl)cccc3Cl)[nH]c2-c2ccc(OC)cc2)cc1 [Compound T36, N^1-{2-[4,5-Bis(4-methoxyphenyl)-1H-imidazol-2-ylsufanyl]ethyl}-2,6-dichlorobenzamide]

- IC50 [1]: 324 nM
Compound: COc1ccc(-c2nc(SCCNC(=O)c3ccc(C(F)(F)F)cc3)[nH]c2-c2ccc(OC)cc2)cc1 [Compound T42, N^1-{2-[4,5-Bis(4-methoxyphenyl)-1H-imidazol-2-ylsufanyl]ethyl}-4-(tri-fluoromethyl)benzamide]

- pIC50 (Table 10, alkylsulfonamides, pig platelets, read-out: MDA IC50): 7.12
Compound: COc1ccc(-c2nc(SCCNS(C)(=O)=O)[nH]c2-c2ccc(OC)cc2)cc1 [Compound T63, N^1-{2-[4,5-Bis(4-methoxyphenyl)-1H-imidazol-2-ylsulfanyl]ethyl}-methanesulfonamide]

- pIC50 [5]: 6.31
Compound: COc1ccc(-c2nc(SCCNS(=O)(=O)c3ccc(C(C)(C)C)cc3)[nH]c2-c2ccc(OC)cc2)cc1 [Compound T26, N^1-{2-[4,5-Bis(4-methoxyphenyl)-1H-imidazol-2-ylsufanyl]ethyl}-4-(tert-butyl)benzenesulfonamide]

- pIC50 (Table 2, sulfanylacetamides, pig platelets, read-out: MDA IC50): 6.35
Compound: COc1ccc(-c2nc(SCC(N)=O)[nH]c2-c2ccc(OC)cc2)cc1 [Compound T5, 2-[4,5-bis(4-methoxyphenyl)-1H-imidazol-2-ylsulfanyl]-acetamide]

- pIC50 [2]: 7.09
Compound: COc1ccc(-c2nc(SCCNC(=O)c3ccc([N+](=O)[O-])cc3)[nH]c2-c2ccc(OC)cc2)cc1 [Compound T40, N^1-{2-[4,5-Bis(4-methoxyphenyl)-1H-imidazol-2-ylsufanyl]ethyl}-4-nitro-benzamide]

Compound: COc1ccc(-c2nc(SCCNS(=O)(=O)c3ccc([N+](=O)[O-])cc3)[nH]c2-c2ccc(OC)cc2)cc1 [Compound T21, N^1-{2-[4,5-Bis(4-methoxyphenyl)-1H-imidazol-2-ylsufanyl]ethyl}-4-nitro-benzenesulfonamide]
- MDA pIC50 (Table 8, arylsulfonamides, pig platelets): 6.96 M
- pIC50 [5]: 6.96

- IC50 [6]: 38.9 nM
Compound: CCS(=O)(=O)NCCSc1nc(-c2ccc(OC)cc2)c(-c2ccc(OC)cc2)[nH]1 [Compound T64, N^1-{2-[4,5-Bis(4-methoxyphenyl)-1H-imidazol-2-ylsulfanyl]ethyl}-ethanesulfonamide]

- IC50 [3]: 331 nM
Compound: Clc1ccc(-c2nc(SCc3ccccn3)[nH]c2-c2ccc(Cl)cc2)cc1 [Compound T83, 2-[4,5-Bis(4-chlorophenyl)-1H-imidazol-2-ylsulfanylmethyl]pyridine]

- pIC50 [5]: 7.30
Compound: COc1ccc(-c2nc(SCCNS(=O)(=O)c3ccccc3)[nH]c2-c2ccc(OC)cc2)cc1 [Compound T17, N^1-{2-[4,5-Bis(4-methoxyphenyl)-1H-imidazol-2-ylsufanyl]ethyl}benzene-sulfonamide]

- pIC50 (Table 1, carbamic acid thioesters, pig platelets, read-out: MDA IC50): 5.14
Compound: CN(C)C(=O)Sc1nc(-c2ccc(Cl)cc2)c(-c2ccccc2)[nH]1 [Compound T103, [4-(4-Chlorophenyl)-5-phenyl-1H-imidazol-2-yl]-N,N-dimethylcarbamic acid thioester]

- IC50 (Table 15, N,N-acetamides, pig platelets): 1510 nM
Compound: CN(C)C(=O)CSc1nc(-c2ccc(Cl)cc2)c(-c2ccc(Cl)cc2)[nH]1 [Compound T87, N^1N^1-Dimethyl-2-[4,5-bis(4-chlorophenyl)-1H-imidazol-2-ylsulfanyl]-acetamide]

- pIC50 (Table 5, heteroarylmethyl sulfides, pig platelets, read-out: MDA IC50): 7.05
Compound: COc1ccc(-c2nc(SCc3ccc4ccccc4n3)[nH]c2-c2ccc(OC)cc2)cc1 [Compound T72, 2-[4,5-Bis(4-methoxyphenyl)-1H-imidazol-2-ylsulfanylmethyl]quinoline]

- IC50 [6]: 100 nM
Compound: COc1ccc(-c2nc(SCCNS(=O)(=O)Cc3ccccc3)[nH]c2-c2ccc(OC)cc2)cc1 [Compound T66, N^1-{2-[4,5-Bis(4-methoxyphenyl)-1H-imidazol-2-ylsulfanyl]ethyl}-phenylmethanesulfonamide]

- pIC50 [2]: 6.27
Compound: COc1ccc(-c2nc(SCCNC(=O)c3ccccc3)[nH]c2-c2ccc(OC)cc2)cc1 [Compound T28, N^1-{2-[4,5-Bis(4-methoxyphenyl)-1H-imidazol-2-ylsufanyl]ethyl}benzamide]

- pIC50 [2]: 6.05
Compound: O=C(NCCSc1nc(-c2ccc(Cl)cc2)c(-c2ccccc2)[nH]1)c1ccccc1 [Compound T106, N^1-{2-[4-(4-Chlorophenyl)-5-phenyl-1H-imidazol-2-ylsufanyl]ethyl}benzamide]
